The results in this text go back to patent US10385107B2 (INDIANA UNIVERSITY RESEARCH AND TECHNOLOGY CORPORATION, priority 2014, dated 2019).

“Also recorded” adds a separate entry of the source.

Data set [1] has as its system blood glucose. The data set is described as follows: Insulin tolerance test in C57/Blk mice (MIU-30). Format: in vivo. Particulars: C57 black mice, through 8 hr. The source says: (generating “MIU-30c”). […] In FIG. 1B total blood glucose of MIU 30a and MIU 30c as compared to vehicle is reported as differential area under curve (AUC). […] These in vivo results are consistent with the in vitro analysis.

Data set [2] concerns the target T1, insulin receptor (Homo sapiens, UniProt P06213). Nature of the data set: Insulin receptor phosphorylation assay, receptor transfected HEK293 cells. Format: cell-based. Particulars: incubated in 20% plasma. Details: expressed in transfected cells; host or cells: HEK293.
Data set [3] concerns the target T1, insulin receptor. The data set is described as follows: Insulin receptor competition binding assay (scintillation proximity). Details: expressed in transfected cells; plasma membrane fragments. Particulars: incubated in 20% plasma/PBS at 37° C.
A short description of data set [4]: Stability of Phe^B1-Insulin Prodrug.
The test system of data set [5] is blood glucose. The data set is described as follows: Comparative insulin tolerance for insulin prodrug analogs in mice. Type of data set: in vivo. The conditions noted are these: for comparative insulin potency in vivo: mice, administered without pre-incubation. The text has this:
The prodrug derivative MIU-29: [B^1(Y16,L17,Y25)29a: A^1(aF19-dLys(Ac),NLeu)] comprises a 4-amino-phenylalnine substitution at position A19 wherein a dipeptide dLys(Ac),NLeu have been covalently linked at the 4-amino position of the A19 residue. […]
(§1) Acylation of the insulin prodrug analogs was investigated to determine if retention times in vivo could be enhanced. […] (providing time for prodrug conversion) relative to the non-acylated prodrug (see FIG. 2).

Data set [6] can be described thus: In vitro activity of prodrugs relative to time incubated ex vivo. Particulars: 30% ACN/PBS, pH 7.4, 37° C. The procedure:
FIG. 2 is a graph depicting the in vitro activity of the acylated prodrug MIU 42: B^1(Y16,L17,Y25)29a: A^1(dLys(rE-C14),Sar-aF19) (wherein an amino acid of the dipeptide prodrug element is acylated, linked at the gamma position “rE” of a glutamic acid linker) relative to time incubated ex vivo in 30% ACN/PBS at pH 7.4 and 37° C.
as §1

T1 sequence (P06213 28-758 limits assumed): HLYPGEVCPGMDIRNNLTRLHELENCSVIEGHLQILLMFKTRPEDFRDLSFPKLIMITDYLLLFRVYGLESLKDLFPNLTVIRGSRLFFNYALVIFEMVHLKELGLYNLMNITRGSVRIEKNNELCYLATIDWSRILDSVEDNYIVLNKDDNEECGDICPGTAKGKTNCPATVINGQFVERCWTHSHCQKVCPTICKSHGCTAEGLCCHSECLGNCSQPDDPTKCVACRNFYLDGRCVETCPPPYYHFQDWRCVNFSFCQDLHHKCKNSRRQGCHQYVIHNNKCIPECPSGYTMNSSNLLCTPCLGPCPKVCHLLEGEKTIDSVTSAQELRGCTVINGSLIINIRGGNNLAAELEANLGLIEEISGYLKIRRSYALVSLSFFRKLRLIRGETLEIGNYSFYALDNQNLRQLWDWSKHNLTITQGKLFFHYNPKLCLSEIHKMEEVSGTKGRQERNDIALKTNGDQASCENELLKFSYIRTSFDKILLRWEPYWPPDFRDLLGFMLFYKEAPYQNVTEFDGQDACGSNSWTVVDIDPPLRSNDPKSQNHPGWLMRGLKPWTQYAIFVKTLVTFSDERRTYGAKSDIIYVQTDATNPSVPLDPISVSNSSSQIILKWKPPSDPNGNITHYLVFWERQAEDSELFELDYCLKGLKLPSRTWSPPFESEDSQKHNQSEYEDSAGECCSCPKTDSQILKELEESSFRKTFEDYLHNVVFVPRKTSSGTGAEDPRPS
T1 sequence (P06213 763-1382 partner limits assumed): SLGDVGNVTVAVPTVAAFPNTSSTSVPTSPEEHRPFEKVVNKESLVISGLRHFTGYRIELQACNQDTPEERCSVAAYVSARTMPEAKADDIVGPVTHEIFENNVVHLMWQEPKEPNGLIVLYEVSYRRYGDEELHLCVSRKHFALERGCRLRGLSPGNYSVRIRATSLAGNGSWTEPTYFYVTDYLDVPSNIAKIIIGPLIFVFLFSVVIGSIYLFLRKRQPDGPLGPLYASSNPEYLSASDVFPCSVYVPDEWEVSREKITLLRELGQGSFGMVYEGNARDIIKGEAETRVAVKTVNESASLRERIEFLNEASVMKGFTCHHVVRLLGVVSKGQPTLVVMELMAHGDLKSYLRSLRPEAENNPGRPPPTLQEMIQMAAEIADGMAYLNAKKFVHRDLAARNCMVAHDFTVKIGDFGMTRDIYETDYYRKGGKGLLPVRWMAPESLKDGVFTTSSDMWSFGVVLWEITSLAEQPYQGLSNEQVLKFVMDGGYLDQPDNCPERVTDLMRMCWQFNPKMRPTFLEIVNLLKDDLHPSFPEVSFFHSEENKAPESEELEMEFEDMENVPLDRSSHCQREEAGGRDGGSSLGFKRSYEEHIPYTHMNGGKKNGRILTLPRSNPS

With “B^1(Y16,L17,Y25)29a: A^1(dLys(Ac),Sar-aF19) [MIU30]”, the “blood glucose AUC vs vehicle (glucose lowering)” value in data set [1] (90 nmol/kg) was “little change in glucose”; in data set [1] (270 nmol/kg), “glucose lowering”. The “% Activity of Insulin (phosphorylation)” value in data set [2] (1 hr) is reported as 23.0%; in data set [2] (3 hr), 26.8%; in data set [2] (6 hr), 32.5%; in data set [2] (9 hr), 41.1%; in data set [2] ([…]), 43.2%. In addition, the figures for the “% Activity of Insulin (binding)” value in data set [3] (0 hr), in data set [3] (9 hr) and in data set [3] (95 hr) were 34.44%, 100.09% and 115.42%, respectively.

On to Methyl dLys(C18) [Peptide 8], for which, in data set [4], the Cleavage time is above 240 h.

On to “[B^1(H5,10 Y16,L17,Y25, K29-C14)28a: A^1(N18,21, aF19NH2)] [MIU-46]”, for which the “comparative insulin potency in vivo” value in data set [5] was “did not exhibit a desired in vivo potency or a basal profile”.

“[B^1(Y16,L17,Y25)29a: A^1(aF19-dLys(Ac),NLeu)] [MIU-29]”: in data set [5] (normal mice, prodrug incubated 24 hours ex vivo before administration), the “ability to lower blood glucose compared to parent compound” value is given as “performed almost identically”.

In the case of “[B^1(Y16,L17,Y25)29a: A^1(dLys(rE-C14),Sar-aF19)] [MIU 42]”, the “in vitro activity relative to time incubated ex vivo” value in data set [6] is reported as “increases with time incubated ex vivo; also recorded: activity is restored”. Also, the “comparative insulin potency in vivo” value in data set [5] is recorded as “not very potent relative to the non-prodrug parent compound”.

As to isobutyl dLys(C18) [Peptide 10], the Cleavage time in data set [4] is around 150 h.
